Columns and labels:
VP16CfEcR = test: Transactivation of reporter gene through switch 1.7 in 293 cells; type: cell-based, Choristoneura fumiferana; conditions: switch 1.7, pEcRELuc
Experimental: Six ecdysone response elements (“EcRE”; SEQ ID NO: 55) from the hsp27 gene were placed upstream of the promoter and a luciferase gene (SEQ ID NO: 66). This switch most probably uses endogenous RXR.
(§1) The cells were harvested and reporter activity was assayed.
(§2) The same procedures described for CHO were followed for 293 cells except that the cells were plated in biocoated plates to avoid clumping.
(§3) Cells were harvested 24–48 hr after adding ligands. […] Twenty μl of lysate was assayed.

DmVgRXR + MmRXR [1] = target: T1, DmVgRXR + MmRXR (Drosophila melanogaster, UniProt P34021, E282G/G283S/G286V); test: Transactivation of reporter gene through switch 1.8 in 3T3 cells; type: cell-based, Drosophila melanogaster; Mus musculus; conditions: switch 1.8, pIND(SP1)LacZ
T1 sequence (P28700 whole entry, the tested form may be a part): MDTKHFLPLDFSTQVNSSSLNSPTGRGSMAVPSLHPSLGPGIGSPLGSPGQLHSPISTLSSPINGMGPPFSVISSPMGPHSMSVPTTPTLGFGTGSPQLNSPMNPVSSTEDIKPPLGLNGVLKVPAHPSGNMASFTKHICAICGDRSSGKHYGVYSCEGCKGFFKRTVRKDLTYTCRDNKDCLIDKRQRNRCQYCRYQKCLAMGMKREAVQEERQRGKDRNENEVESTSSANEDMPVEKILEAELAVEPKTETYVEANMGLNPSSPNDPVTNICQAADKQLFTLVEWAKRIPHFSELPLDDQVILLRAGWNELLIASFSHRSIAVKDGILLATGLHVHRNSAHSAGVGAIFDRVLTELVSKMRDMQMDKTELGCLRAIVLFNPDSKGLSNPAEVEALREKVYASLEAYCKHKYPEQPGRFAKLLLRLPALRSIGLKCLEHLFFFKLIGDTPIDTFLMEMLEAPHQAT
T1 sequence (P34021 whole entry E282G/G283S/G286V, the tested form may be a part): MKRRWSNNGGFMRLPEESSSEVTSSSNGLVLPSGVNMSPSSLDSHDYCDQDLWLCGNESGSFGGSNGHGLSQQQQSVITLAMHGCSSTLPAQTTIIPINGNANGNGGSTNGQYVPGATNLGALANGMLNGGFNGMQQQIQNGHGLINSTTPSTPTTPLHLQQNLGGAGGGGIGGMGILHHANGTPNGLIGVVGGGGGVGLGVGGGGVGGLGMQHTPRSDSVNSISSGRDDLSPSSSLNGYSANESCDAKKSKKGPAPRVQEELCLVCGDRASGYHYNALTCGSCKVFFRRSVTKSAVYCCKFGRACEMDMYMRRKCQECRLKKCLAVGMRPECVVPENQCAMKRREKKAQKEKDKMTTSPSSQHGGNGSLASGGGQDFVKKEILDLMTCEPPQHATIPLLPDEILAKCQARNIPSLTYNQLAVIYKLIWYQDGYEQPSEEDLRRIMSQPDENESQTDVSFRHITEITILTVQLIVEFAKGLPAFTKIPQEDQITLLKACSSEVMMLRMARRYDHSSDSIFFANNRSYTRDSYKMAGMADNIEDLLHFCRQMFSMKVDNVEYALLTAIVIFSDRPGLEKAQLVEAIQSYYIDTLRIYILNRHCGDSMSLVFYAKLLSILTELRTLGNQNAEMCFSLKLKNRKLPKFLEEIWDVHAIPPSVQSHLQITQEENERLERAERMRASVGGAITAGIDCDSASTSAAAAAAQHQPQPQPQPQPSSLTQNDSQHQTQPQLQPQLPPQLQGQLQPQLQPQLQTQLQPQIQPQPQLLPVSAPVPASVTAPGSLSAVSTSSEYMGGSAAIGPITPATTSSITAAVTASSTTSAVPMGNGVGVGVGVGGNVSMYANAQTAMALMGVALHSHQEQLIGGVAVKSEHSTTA

GAL4RXR + VP16CfEcR [2] = test: Transactivation of reporter gene through switch 1.3 in CHO cells; type: cell-based, Mus musculus; Choristoneura fumiferana; conditions: switch 1.3, pGAL4RELuc
Experimental: as §1, §3

GAL4USP + VP16CfEcR [3] = test: Transactivation of reporter gene through switch 1.5 in 3T3 cells; type: cell-based, Choristoneura fumiferana; conditions: switch 1.5, pGAL4RELuc
Experimental: (§4) This construct was prepared in the same way as switch 1.3 except MmRXRDEF was replaced with CfUSPDEF (SEQ ID NO: 67).
as §1
(§5) The cells were plated when they reached 50% confluency.
as §3

GAL4USP + VP16CfEcR [4] = test: Transactivation of reporter gene through switch 1.5 in CV1 cells; type: cell-based, Choristoneura fumiferana; conditions: switch 1.5, pGAL4RELuc
Experimental: as §4, §1, §5
(§6) The same procedures described for NIH3T3 cells were followed for CV1 cells
as §3

CfVgRXR [5] = test: Transactivation of reporter gene through switch 1.10 in 293 cells; type: cell-based, Choristoneura fumiferana; conditions: switch 1.10, pIND(SP1)LacZ
Experimental: (§7) This example was prepared in the same way as switch 1.9 except MmRXR (SEQ ID NO: 62) was deleted.
as §1, §2, §3

CfVgRXR [6] = test: Transactivation of reporter gene through switch 1.10 in 3T3 cells; type: cell-based, Choristoneura fumiferana; conditions: switch 1.10, pIND(SP1)LacZ
Experimental: as §7, §1, §5, §3

GAL4RXR + VP16CfEcR [7] = test: Transactivation of reporter gene through switch 1.3 in 3T3 cells
Source text: In various cellular backgrounds, including mammalian cells, insect ecdysone receptor (EcR) heterodimerizes with retinoid X receptor (RXR) and, upon binding of ligand, transactivates genes under the control of ecdysone response elements. […] The prepared receptor constructs comprise a ligand binding domain of EcR and of RXR or of USP; a DNA binding domain of GAL4 or of EcR; and an activation domain of VP16. The reporter constructs include a reporter gene, luciferase or LacZ, operably linked to a synthetic promoter construct that comprises either GAL4 or EcR/USP binding sites (response elements). Various combinations of these receptor and reporter constructs were cotransfected into CHO, NIH3T3, CV1 and 293 cells.
The same procedures described for CHO cells were followed for 3T3 cells as well with two modifications. The cells were plated when they reached 50% confluency. 125,000 or 50,000 or 25,000 cells were plated per well of 6- or 12- or 24-well plates respectively. […] The ligand treatments were performed as described in the CHO cell section above.

DmVgRXR + MmRXR [8] = target: T1, DmVgRXR + MmRXR; test: Transactivation of reporter gene through switch 1.8 in CV1 cells; type: cell-based, Drosophila melanogaster; Mus musculus; set-up: host or cells: CHO, NIH3T3, 293 or CV1 cells; conditions: switch 1.8, pIND(SP1)LacZ
Source text: This system was purchased from Invitrogen Corp., Carlsbad, California. It comprises a Drosophila melanogaster EcR (“DmEcR”) with a modified DNABD fused to VP16AD and placed under the control of a CMV promoter (SEQ ID NO: 68). Full length MmRXR (SEQ ID NO: 62) was placed under the control of the RSV promoter (SEQ ID NO: 69). The reporter, pIND(SP1)LacZ, contains five copies of a modified ecdysone response element (“EcRE”, E/GRE), three copies of an SPI enhancer, and a minimal heat shock promoter, all of which were placed upstream to the LacZ reporter gene.
as §1, §5, §6, §3

GAL4EcR + VP16USP = test: Transactivation of reporter gene through switch 1.2 in 3T3 cells; type: cell-based, Choristoneura fumiferana; conditions: switch 1.2, pGAL4RELuc
Experimental: This construct was prepared in the same way as in switch 1.1 above except MmRXRDEF was replaced with the D, E and F domains from spruce budworm USP (“CfUSPDEF”; SEQ ID NO: 67). The constructs used in this example are similar to those disclosed in U.S. Pat. No. 5,880,333 except that Choristoneura fumiferana USP rather than Drosophila melanogaster USP was utilized.
as §1, §5, §3

CfEcR = test: Transactivation through CfEcR- versus DmEcR-based switches in mammalian cell lines (Tables 1–4); set-up: species or system Choristoneura fumiferana
Experimental: as §3

`CCc1c(OC)cccc1C(=O)NN(C(=O)c1cc(C)cc(C)c1)C(C)(C)C` [N-(2-ethyl-3-methoxybenzoyl)-N′-(3,5-dimethylbenzoyl)-N′-t-butylhydrazine] was tested, and the “Mean Fold Activation Through N-(2-ethyl-3-methoxybenzoyl)-N′-(3,5-dimethylbenzoyl)-N′-t-butylhydrazine” value (VP16CfEcR) was 2 fold, the “Mean Fold Activation Through N-(2-ethyl-3-methoxybenzoyl)-N′-(3,5-dimethylbenzoyl)-N′-t-butylhydrazine” value (DmVgRXR + MmRXR [1]) was 21 fold and the “Mean Fold Activation with 50 μM N-(2-ethyl-3-methoxybenzoyl)-N′-(3,5-dimethylbenzoyl)-N′-t-butylhydrazine” value (GAL4RXR + VP16CfEcR [2]) was 85 fold. For the same compound, the “Mean Fold Activation Through N-(2-ethyl-3-methoxybenzoyl)-N′-(3,5-dimethylbenzoyl)-N′-t-butylhydrazine” value (GAL4USP + VP16CfEcR [3]) was 3 fold, the “Mean Fold Activation Through N-(2-ethyl-3-methoxybenzoyl)-N′-(3,5-dimethylbenzoyl)-N′-t-butylhydrazine” value (GAL4USP + VP16CfEcR [4]) was 3 fold and the “Mean Fold Activation Through N-(2-ethyl-3-methoxybenzoyl)-N′-(3,5-dimethylbenzoyl)-N′-t-butylhydrazine” value (CfVgRXR [5]) was 3 fold. For the same compound, the “Mean Fold Activation Through N-(2-ethyl-3-methoxybenzoyl)-N′-(3,5-dimethylbenzoyl)-N′-t-butylhydrazine” value (CfVgRXR [6]) was 2 fold, the “Mean Fold Induction at 1.0 μM Concentration” value (GAL4RXR + VP16CfEcR [7]; GAL4MmRXRDEF/VP16CfEcRCDEF (switch 1.3), 1.0 μM ligand) was 71 fold and the “Mean Fold Activation Through N-(2-ethyl-3-methoxybenzoyl)-N′-(3,5-dimethylbenzoyl)-N′-t-butylhydrazine” value (GAL4RXR + VP16CfEcR [7]; switch 1.3, pGAL4RELuc) was 47 fold. The “Mean Fold Activation Through N-(2-ethyl-3-methoxybenzoyl)-N′-(3,5-dimethylbenzoyl)-N′-t-butylhydrazine” value (DmVgRXR + MmRXR [8]) was 12 fold, the “Mean Fold Activation Through N-(2-ethyl-3-methoxybenzoyl)-N′-(3,5-dimethylbenzoyl)-N′-t-butylhydrazine” value (GAL4EcR + VP16USP) was 2 fold and the “Potency as activator of CfEcR compared to DmEcR” value (CfEcR) was “more potent activators of CfEcR as compared to Drosophila melanogaster EcR (DmEcR)”.

— patent publication US7091038B2, “Ecdysone receptor-based inducible gene expression system” (RheoGene, Inc., priority 2000, dated 2006)
